pIC50: −log10 of the molar value.
How the values were obtained:
recombinant MMP-2 = target: T1, recombinant MMP-2 (Homo sapiens, UniProt P08253); assay: MMP compound screening, recombinant MMP-2 (SensoLyte 390 Generic MMP Activity Kit); assay type: biochemical; conditions: for inhibition at 0.01 µM: 10 nM compound; for pIC50: 2 nM enzyme, 30 min pre-incubation at 37° C.
T1 sequence (P08253 110-660): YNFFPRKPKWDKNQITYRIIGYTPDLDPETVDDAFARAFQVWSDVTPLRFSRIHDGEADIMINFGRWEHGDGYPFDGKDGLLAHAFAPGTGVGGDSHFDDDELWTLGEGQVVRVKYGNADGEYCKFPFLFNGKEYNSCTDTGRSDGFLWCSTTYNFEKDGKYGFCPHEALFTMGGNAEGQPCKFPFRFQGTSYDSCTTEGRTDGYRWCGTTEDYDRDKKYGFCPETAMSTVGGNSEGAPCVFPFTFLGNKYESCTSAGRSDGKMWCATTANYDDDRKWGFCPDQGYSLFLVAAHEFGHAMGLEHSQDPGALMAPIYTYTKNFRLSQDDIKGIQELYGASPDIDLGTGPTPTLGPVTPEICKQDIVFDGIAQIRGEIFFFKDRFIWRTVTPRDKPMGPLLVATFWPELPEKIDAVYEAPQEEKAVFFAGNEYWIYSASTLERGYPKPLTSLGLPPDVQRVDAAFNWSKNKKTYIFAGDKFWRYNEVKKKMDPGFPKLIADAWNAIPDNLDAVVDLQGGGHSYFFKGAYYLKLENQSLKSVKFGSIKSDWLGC
Protocol: (§1) The activities were determined using Fluorimetric SensoLyte® 390 Generic MMP Activity Kit from Anaspec (cat #72202). This assay kit can detect the activity of several MMPs such as MMP-1, 2, 7, 8, 9, 13, 14, 15, 16 and 24.
(§2) For screening MMP compounds, activated 2 nM of recombinant MMP-2, 8, 9 or 13 are pre-incubated with MMP compound (inhibitor) for 30 min at 37° C. The substrate is added and the inhibition of MMP activity is expressed as % of total activity (without the inhibitor incubation).

recombinant MMP-9 = recombinant MMP-9 (Homo sapiens, UniProt P14780); assay: MMP compound screening, recombinant MMP-9 (SensoLyte 390 Generic MMP Activity Kit); assay type: biochemical; conditions: for inhibition at 0.01 µM: 10 nM compound
Protocol: as §1, §2

recombinant MMP-13 = recombinant MMP-13 (Homo sapiens, UniProt P45452); assay: MMP compound screening, recombinant MMP-13 (SensoLyte 390 Generic MMP Activity Kit); assay type: biochemical; conditions: read-out: inhibition of MMP-13 activity, % of total activity; for inhibition at 0.01 µM: 10 nM compound; for inhibition at 0.1 µM: 100 nM (0.1 uM) compound
Protocol: as §1, §2

recombinant MMP-8 = recombinant MMP-8 (Homo sapiens, UniProt P22894); assay: MMP compound screening, recombinant MMP-8 (SensoLyte 390 Generic MMP Activity Kit); assay type: biochemical; conditions: read-out: inhibition of MMP-8 activity, % of total activity; for inhibition at 0.01 µM: 10 nM compound; for inhibition at 0.1 µM: 100 nM (0.1 uM) compound
Protocol: as §1, §2

[1] = Biodistribution of M005: tumor and tissue fluorescence scans; assay type: in vivo, mouse; conditions: 4 h uptake time, Cy5 channel
Protocol: FIGS. 3-5 are mouse scans before and 4 hours after […] injection.

MMP = MMP inhibition, general statement; assay type: biochemical
Protocol: as §1, §2

[2] = read-out: inhibition of MMP-2 activity, % of total activity
[3] = read-out: inhibition of MMP-9 activity, % of total activity

Sequence of recombinant MMP-8 (P22894 101-467, species assumed): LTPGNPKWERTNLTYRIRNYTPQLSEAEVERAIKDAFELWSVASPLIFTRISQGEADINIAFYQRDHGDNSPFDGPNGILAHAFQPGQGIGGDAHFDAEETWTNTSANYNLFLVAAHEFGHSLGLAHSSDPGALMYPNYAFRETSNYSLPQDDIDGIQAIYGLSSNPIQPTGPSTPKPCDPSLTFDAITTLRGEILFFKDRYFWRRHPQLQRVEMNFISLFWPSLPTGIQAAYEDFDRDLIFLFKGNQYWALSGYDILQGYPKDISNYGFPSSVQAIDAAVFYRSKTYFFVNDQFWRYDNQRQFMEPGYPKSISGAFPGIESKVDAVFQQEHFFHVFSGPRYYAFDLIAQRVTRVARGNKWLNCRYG
Sequence of recombinant MMP-9 (P14780 107-707 limits assumed, species assumed): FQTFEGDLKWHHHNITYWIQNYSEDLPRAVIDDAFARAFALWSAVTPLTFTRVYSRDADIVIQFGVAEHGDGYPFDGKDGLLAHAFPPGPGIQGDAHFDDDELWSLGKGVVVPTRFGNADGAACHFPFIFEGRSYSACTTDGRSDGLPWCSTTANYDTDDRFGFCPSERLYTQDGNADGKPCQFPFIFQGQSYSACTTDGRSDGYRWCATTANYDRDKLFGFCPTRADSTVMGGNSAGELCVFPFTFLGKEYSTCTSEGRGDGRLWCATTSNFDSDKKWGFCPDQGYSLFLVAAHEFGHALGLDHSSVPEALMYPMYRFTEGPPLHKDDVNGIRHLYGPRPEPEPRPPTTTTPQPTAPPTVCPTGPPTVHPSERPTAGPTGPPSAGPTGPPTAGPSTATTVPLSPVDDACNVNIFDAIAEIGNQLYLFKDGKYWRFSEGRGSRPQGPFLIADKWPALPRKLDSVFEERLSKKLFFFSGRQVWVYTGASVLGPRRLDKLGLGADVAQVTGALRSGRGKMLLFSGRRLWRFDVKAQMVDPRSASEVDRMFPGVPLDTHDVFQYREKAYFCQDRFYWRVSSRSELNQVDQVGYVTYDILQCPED

SMILES	inhibition at 0.01 µM (recombinant MMP-2; [2]) [%]	inhibition at 0.01 µM (recombinant MMP-9; [3]) [%]	inhibition at 0.01 µM (recombinant MMP-13) [%]	inhibition at 0.01 µM (recombinant MMP-8) [%]	pIC50 (recombinant MMP-2)	inhibition at 0.1 µM (recombinant MMP-13) [%]	inhibition at 0.1 µM (recombinant MMP-8) [%]	further results
COc1ccc(S(=O)(=O)N(Cc2cn(CCOCCNC(=O)c3cc(C(=O)NCCOCCn4cc(CN([C@@H](C(=O)NO)C(C)C)S(=O)(=O)c5ccc(OC)cc5)nn4)cc(-n4cc(CCCF)nn4)c3)nn2)[C@H](C(=O)NO)C(C)C)cc1 [M011]	50	55	75	57				
COc1ccc(S(=O)(=O)N(Cc2cn(CCOCCn3cc(CCCF)nn3)nn2)[C@@H](C(=O)NO)C(C)C)cc1 [M008]	82	78	82	95				
COc1ccc(S(=O)(=O)N(Cc2cn(CCOCCOCCOCCNC(=O)CCC(NC(=O)Cn3cc(CCCF)nn3)C(=O)NCCOCCOCCOCCn3cc(CN([C@@H](C(=O)NOC(C)(C)C)C(C)C)S(=O)(=O)c4ccc(OC)cc4)nn3)nn2)[C@@H](C(=O)NO)C(C)C)cc1 (some centres unmarked) [M010]	28	2	10	13				
COc1ccc(S(=O)(=O)N(Cc2cn(CCOCCNC(=O)c3cc(C(=O)O)cc(-n4cc(CCCF)nn4)c3)nn2)[C@@H](C(=O)NO)C(C)C)cc1 [M013]	66	67	79	84				
COc1ccc(S(=O)(=O)N(Cc2cn(CCOCCOCCOCCNC(=O)CCC(NC(=O)Cn3cc(CCCF)nn3)C(=O)NCCOCCOCCOCCn3cc(CN([C@@H](C(=O)NO)C(C)C)S(=O)(=O)c4ccc(OC)cc4)nn3)nn2)[C@@H](C(=O)NO)C(C)C)cc1 (some centres unmarked) [M009]	59		64	46				inhibition of MMP-9 activity, % of total activity (recombinant MMP-9; concentration not given): 48%
CCN1\C(=C/C=C/C=C/C2=[N+](CCCCCC(=O)NCCOCCOCCOCCn3cc(CN([C@@H](C(=O)NO)C(C)C)S(=O)(=O)c4ccc(OC)cc4)nn3)c3ccc4c(S(=O)(=O)O)cc(S(=O)(=O)[O-])cc4c3C2(C)C)C(C)(C)c2c1ccc1c(S(=O)(=O)O)cc(S(=O)(=O)O)cc21 [M003]					8.28	97	97	
CCN1C(=CC=CC=CC2=[N+](CCCCCC(=O)NCCCCC(NC(=O)Cn3cc(CCCF)nn3)C(=O)NCCOCCOCCOCCn3cc(CN(C(C(=O)NO)C(C)C)S(=O)(=O)c4ccc(OC)cc4)nn3)c3ccc4c(S(=O)(=O)O)cc(S(=O)(=O)[O-])cc4c3C2(C)C)C(C)(C)c2c1ccc1c(S(=O)(=O)O)cc(S(=O)(=O)O)cc21 (centres unmarked) [M005]					8.70			uptake in tumor and tissue (fluorescence) ([1]; with and without tracer injection): uptake above background fluorescence of tissue; uptake into the brain ([1]; brain used as background tissue): no uptake of the tracer into the brain; pIC50 (recombinant MMP-9; 2 nM enzyme, 30 min pre-incubation at 37° C.): 8.68
COc1ccc(S(=O)(=O)N(Cc2cn(CCOCCn3cc(CN([C@@H](C(=O)NO)C(C)C)S(=O)(=O)c4ccc(OC)cc4)nn3)nn2)[C@H](C(=O)NO)C(C)C)cc1 [M007]	64	89	96	94		99	100	inhibition at 0.1 µM (recombinant MMP-2; 100 nM (0.1 uM) compound, read-out: inhibition of MMP-2 activity, % of total activity): 95%; inhibition at 0.1 µM (recombinant MMP-9; 100 nM (0.1 uM) compound, read-out: inhibition of MMP-9 activity, % of total activity): 100%; MMP inhibition (in words) (MMP): good MMP inhibition
COc1ccc(S(=O)(=O)N(Cc2cn(CCOCCOCCOCCNC(=O)CCCCC[N+]3=C(/C=C/C=C/C=C4\N(C)c5ccc6ccccc6c5C4(C)C)C(C)(C)c4c3ccc3ccccc43)nn2)[C@@H](C(=O)NO)C(C)C)cc1 [M004]					7.60	91	83	
COc1ccc(-c2cn(CCN([C@@H](C(=O)NO)C(C)C)S(=O)(=O)c3ccc(OC)cc3)nn2)cc1 [M001]						99	92	
